{
  "source": "patent US9546164B2",
  "about": "(GENENTECH, INC., priority 2013, dated 2017)",
  "note": "pIC50: −log10 of the molar value. Counter-ions that a name gives are not always drawn.",
  "data": [
    {"target": "hNav1.7 (Homo sapiens (Human), UniProt Q15858)", "sequence (Q15858 other isoform, or with tags, fused parts or gaps)": "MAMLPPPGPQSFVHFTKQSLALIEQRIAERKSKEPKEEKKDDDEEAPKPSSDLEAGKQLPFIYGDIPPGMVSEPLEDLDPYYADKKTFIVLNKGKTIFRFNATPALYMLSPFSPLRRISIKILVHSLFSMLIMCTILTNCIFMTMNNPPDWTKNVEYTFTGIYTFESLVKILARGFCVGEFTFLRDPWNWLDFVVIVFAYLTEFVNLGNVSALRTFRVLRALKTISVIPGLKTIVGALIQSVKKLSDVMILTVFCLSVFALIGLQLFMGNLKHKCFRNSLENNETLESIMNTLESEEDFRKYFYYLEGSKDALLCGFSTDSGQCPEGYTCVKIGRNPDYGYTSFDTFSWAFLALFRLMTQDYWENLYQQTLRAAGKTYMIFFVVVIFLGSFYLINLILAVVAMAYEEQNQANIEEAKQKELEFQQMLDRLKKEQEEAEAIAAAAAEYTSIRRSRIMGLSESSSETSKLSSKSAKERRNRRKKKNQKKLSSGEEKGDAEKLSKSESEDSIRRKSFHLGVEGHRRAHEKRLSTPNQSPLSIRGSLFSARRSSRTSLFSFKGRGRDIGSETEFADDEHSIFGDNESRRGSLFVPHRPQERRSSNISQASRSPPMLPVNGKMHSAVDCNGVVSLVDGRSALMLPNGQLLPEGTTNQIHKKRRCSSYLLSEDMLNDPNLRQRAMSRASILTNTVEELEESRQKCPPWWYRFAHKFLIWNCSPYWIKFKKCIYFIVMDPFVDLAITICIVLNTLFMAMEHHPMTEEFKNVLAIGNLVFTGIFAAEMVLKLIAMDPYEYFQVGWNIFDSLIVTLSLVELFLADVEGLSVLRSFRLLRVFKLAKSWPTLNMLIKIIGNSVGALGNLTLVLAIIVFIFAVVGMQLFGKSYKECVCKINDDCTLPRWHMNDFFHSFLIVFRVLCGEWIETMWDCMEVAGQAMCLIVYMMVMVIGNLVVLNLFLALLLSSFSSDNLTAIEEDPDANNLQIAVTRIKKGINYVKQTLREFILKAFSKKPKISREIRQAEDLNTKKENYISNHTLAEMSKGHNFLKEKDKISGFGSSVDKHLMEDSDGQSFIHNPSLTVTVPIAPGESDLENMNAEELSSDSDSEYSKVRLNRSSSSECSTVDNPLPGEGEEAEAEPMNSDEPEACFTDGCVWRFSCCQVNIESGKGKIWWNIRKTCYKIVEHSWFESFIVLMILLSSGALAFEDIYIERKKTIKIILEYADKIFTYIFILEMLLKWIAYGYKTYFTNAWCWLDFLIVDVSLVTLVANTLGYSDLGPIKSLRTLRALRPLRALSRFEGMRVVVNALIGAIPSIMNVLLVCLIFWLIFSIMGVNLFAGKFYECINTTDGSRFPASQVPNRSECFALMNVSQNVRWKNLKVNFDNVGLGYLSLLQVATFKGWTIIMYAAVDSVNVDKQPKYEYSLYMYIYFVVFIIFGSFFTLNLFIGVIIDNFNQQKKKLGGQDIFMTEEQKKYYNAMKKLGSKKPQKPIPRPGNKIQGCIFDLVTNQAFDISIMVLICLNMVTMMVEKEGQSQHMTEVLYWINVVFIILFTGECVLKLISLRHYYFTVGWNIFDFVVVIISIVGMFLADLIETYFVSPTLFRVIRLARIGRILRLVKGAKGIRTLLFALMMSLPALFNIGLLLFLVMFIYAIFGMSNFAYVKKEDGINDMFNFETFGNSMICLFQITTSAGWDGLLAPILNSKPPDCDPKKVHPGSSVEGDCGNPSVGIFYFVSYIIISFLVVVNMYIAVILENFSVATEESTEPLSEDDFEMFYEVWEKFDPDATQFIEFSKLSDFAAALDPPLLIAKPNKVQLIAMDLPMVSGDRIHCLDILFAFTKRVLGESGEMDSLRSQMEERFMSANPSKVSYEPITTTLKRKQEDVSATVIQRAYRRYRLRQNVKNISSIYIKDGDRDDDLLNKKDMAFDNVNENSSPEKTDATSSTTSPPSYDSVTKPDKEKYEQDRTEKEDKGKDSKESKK", "sequence (Q07699 19-218 partner)": "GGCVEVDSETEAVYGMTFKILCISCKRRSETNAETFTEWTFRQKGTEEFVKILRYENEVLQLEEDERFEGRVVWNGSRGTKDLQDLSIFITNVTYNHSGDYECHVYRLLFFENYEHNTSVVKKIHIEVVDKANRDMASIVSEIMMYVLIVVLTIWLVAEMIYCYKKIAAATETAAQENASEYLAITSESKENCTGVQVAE", "test": "Tritiated sulfonamide competitive binding to membranes from cells expressing hNav1.7 and the β1 subunit;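 further: Filter-bound radioactivity counted by liquid scintillation, nonspecific binding defined with excess unlabelled ligand, IC50 fitted to percent inhibition of specific binding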", "conditions": "not given", "values": [
      {"smiles": "O=C(NS(=O)(=O)C1CC1)c1cc(C2CC2)c(CN2CCC(Sc3cc(Cl)cc(Cl)c3)CC2)cc1F", "note": "[Example 531, 5-cyclopropyl-N-(cyclopropylsulfonyl)-4-((4-((3,5-dichlorophenyl)thio)piperidin-1-yl)methyl)-2-fluorobenzamide, trifluoroacetic acid salt]", "pIC50": 8.66},
      {"smiles": "O=C(NS(=O)(=O)C1CC1)c1cc(C2CC2)c(CN2CCC(Oc3ccccc3C(F)(F)F)CC2)cc1F", "note": "[Example 498, 5-cyclopropyl-N-(cyclopropylsulfonyl)-2-fluoro-4-((4-(2-(trifluoromethyl)phenoxy)piperidin-1-yl)methyl)benzamide]", "pIC50": 7.06},
      {"smiles": "CS(=O)(=O)NC(=O)c1cc(C2CC2)c(CN2CCC(Oc3cc(C(F)(F)F)c(Cl)cn3)CC2)cc1F", "note": "[Example 521, 4-((4-((5-chloro-4-(trifluoromethyl)pyridin-2-yl)oxy)piperidin-1-yl)methyl)-5-cyclopropyl-2-fluoro-N-(methylsulfonyl)benzamide, trifluoroacetic acid salt]", "pIC50": 8.10},
      {"smiles": "CS(=O)(=O)NC(=O)c1cc(C2CC2)c(O[C@@H]2CCCN(Cc3ccccc3Cl)C2)cc1F", "note": "[Example 24, (R)-4-((1-(2-chlorobenzyl)piperidin-3-yl)oxy)-5-cyclopropyl-2-fluoro-N-(methylsulfonyl)benzamide]", "pIC50": 8.22},
      {"smiles": "C[C@@H]1CN(Cc2cc(F)c(C(=O)NS(=O)(=O)C3CC3)cc2C2CC2)CCN1[C@H](C)c1cc(Cl)cc(Cl)c1", "note": "[Example 570, 5-cyclopropyl-N-(cyclopropylsulfonyl)-4-(((R)-4-((R)-1-(3,5-dichlorophenyl)ethyl)-3-methylpiperazin-1-yl)methyl)-2-fluorobenzamide]", "pIC50": 8.54},
      {"smiles": "CS(=O)(=O)NC(=O)c1cc(C2CC2)c(OCC2CN([C@H](c3ccccc3)c3ccc(C#N)cc3)C2)cc1F", "note": "[Example 111, (R)-4-((1-((4-Cyanophenyl)(phenyl)methyl)azetidin-3-yl)methoxy)-5-cyclopropyl-2-fluoro-N-(methylsulfonyl)benzamide]", "pIC50": 7.69},
      {"smiles": "CS(=O)(=O)NC(=O)c1cc(C2CC2)c(CN2CCC(Oc3ccc(Cl)c(C(F)(F)F)c3)CC2)cc1F", "note": "[Example 519, 4-((4-(4-chloro-3-(trifluoromethyl)phenoxy)piperidin-1-yl)methyl)-5-cyclopropyl-2-fluoro-N-(methylsulfonyl)benzamide, trifluoroacetic acid salt]", "pIC50": 8.09}
    ]},
    {"target": "hNav1.7 (Homo sapiens (Human), UniProt Q15858)", "test": "Tritiated sulfonamide competitive binding to membranes from cells expressing hNav1.7 and the β1 subunit;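 further: Filter-bound radioactivity counted by liquid scintillation, nonspecific binding defined with excess unlabelled ligand, IC50 fitted to percent inhibition of specific binding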", "conditions": "read-out: Ligand Binding Assay; 100 pM [3H]compound, membranes with hNav1.7 and β1 subunit, 18 h, room temperature", "values": [
      {"smiles": "O=C(NS(=O)(=O)C1CC1)c1cc(C2CC2)c(CN2[C@@H]3CC[C@H]2CC(Oc2cc(C(F)(F)F)cc(Cl)c2F)C3)cc1F", "note": "(stereo partly drawn) [Example 470, 4-(((1R,3r,5S)-3-(3-chloro-2-fluoro-5-(trifluoromethyl)phenoxy)-8-azabicyclo[3.2.1]octan-8-yl)methyl)-5-cyclopropyl-N-(cyclopropylsulfonyl)-2-fluorobenzamide, trifluoroacetic acid salt]", "pIC50": 8.42},
      {"smiles": "CC(c1cccc(Cl)c1)N1CCC(COc2cc(F)c(C(=O)NS(C)(=O)=O)cc2C2CC2)CC1", "note": "(centres unmarked) [Example 148, 4-((1-(1-(3-Chlorophenyl)ethyl)piperidin-4-yl)methoxy)-5-cyclopropyl-2-fluoro-N-(methylsulfonyl)benzamide]", "pIC50": 7.82},
      {"smiles": "CS(=O)(=O)NC(=O)c1cc(C2CC2)c(OCC2CCN(S(=O)(=O)c3ccc(Br)c(Cl)c3)CC2)cc1F", "note": "[Example 390, 4-((1-((4-bromo-3-chlorophenyl)sulfonyl)piperidin-4-yl)methoxy)-5-cyclopropyl-2-fluoro-N-(methylsulfonyl)benzamide]", "pIC50": 7.73},
      {"smiles": "O=C(NS(=O)(=O)N1CCC1)c1cc(C2CC2)c(CN2CCO[C@H](Cc3cc(Cl)cc(Cl)c3)C2)cc1F", "note": "[Example 465, (R)—N-(azetidin-1-ylsulfonyl)-5-cyclopropyl-4-((2-(3,5-dichlorobenzyl)morpholino)methyl)-2-fluorobenzamide, trifluoroacetic acid salt]", "pIC50": 7.89},
      {"smiles": "CC(c1cc(Cl)cc(Cl)c1)N1CC(COc2cc(F)c(C(=O)NS(C)(=O)=O)cc2C2CC2)C1", "note": "(centres unmarked) [Example 98, 5-Cyclopropyl-4-((1-(1-(3,5-dichlorophenyl)ethyl)azetidin-3-yl)methoxy)-2-fluoro-N-(methylsulfonyl)benzamide]", "pIC50": 8.12},
      {"smiles": "CS(=O)(=O)NC(=O)c1cc(C2CC2)c(OCC2CCN([C@@H]3c4ccccc4C[C@H]3O)CC2)cc1F", "note": "[Example 200, 5-Cyclopropyl-2-fluoro-4-((1-((1R,2R)-2-hydroxy-2,3-dihydro-1H-inden-1-yl)piperidin-4-yl)methoxy)-N-(methylsulfonyl)benzamide]", "pIC50": 5.03},
      {"smiles": "CCS(=O)(=O)NC(=O)c1cc(C2CC2)c(OC[C@@H]2CC[C@@H](C)N([C@@H](C)c3cc(Cl)cc(Cl)c3)C2)cc1F", "note": "[Example 344, trifluoroacetic acid salt]", "pIC50": 8.16},
      {"smiles": "C[C@H](c1ccc(Cl)c(Cl)c1)N1CCC(C)(COc2cc(F)c(C(=O)NS(C)(=O)=O)cc2C2CC2)CC1", "note": "(single isomer, unassigned) [Example 218]", "pIC50": 8.11},
      {"smiles": "O=C(NS(=O)(=O)N1CCC1)c1cc(C2CC2)c(CN2CCC[C@@H](Oc3cc(Cl)cc(Cl)c3)C2)cc1F", "note": "[Example 56, (R)—N-(azetidin-1-ylsulfonyl)-5-cyclopropyl-4-((3-(3,5-dichlorophenoxy)piperidin-1-yl)methyl)-2-fluorobenzamide]", "pIC50": 7.20},
      {"smiles": "COC[C@@](C)(c1cc(Cl)cc(Cl)c1)N1CCC(COc2cc(F)c(C(=O)NS(C)(=O)=O)cc2C2CC2)CC1", "note": "(single isomer, unassigned) [Example 201]", "pIC50": 8.30},
      {"smiles": "CS(=O)(=O)NC(=O)c1cc(C2CC2)c(OCC2CCN(Cc3cc(C(F)(F)F)ccc3Cl)CC2)cc1F", "note": "[Example 580, 4-((1-(2-chloro-5-(trifluoromethyl)benzyl)piperidin-4-yl)methoxy)-5-cyclopropyl-2-fluoro-N-(methylsulfonyl)benzamide]", "pIC50": 8.43},
      {"smiles": "CS(=O)(=O)NC(=O)c1cc(C2CC2)c(OCC2CCN(C(c3ccc(Cl)cc3)c3ccc(Cl)cc3)CC2)cc1F", "note": "[Example 362, 4-((1-(bis(4-chlorophenyl)methyl)piperidin-4-yl)methoxy)-5-cyclopropyl-2-fluoro-N-(methylsulfonyl)benzamide, trifluoroacetic acid salt]", "pIC50": 8.54},
      {"smiles": "Cc1cc(F)ccc1S(=O)(=O)N1CCC(COc2cc(F)c(C(=O)NS(=O)(=O)C3CC3)cc2C2CC2)CC1", "note": "[Example 387, 5-cyclopropyl-N-(cyclopropylsulfonyl)-2-fluoro-4-((1-((4-fluoro-2-methylphenyl)sulfonyl)piperidin-4-yl)methoxy)benzamide]", "pIC50": 7.88},
      {"smiles": "COC[C@@H](c1cccc(Cl)c1)N1CCC(COc2cc(F)c(C(=O)NS(C)(=O)=O)cc2C2CC2)CC1", "note": "[Example 262, (R)-4-((1-(1-(3-chlorophenyl)-2-methoxyethyl)piperidin-4-yl)methoxy)-5-cyclopropyl-2-fluoro-N-(methylsulfonyl)benzamide]", "pIC50": 7.74},
      {"smiles": "COc1cc(OC(F)(F)F)ccc1CN1CCC[C@@H](Oc2cc(F)c(C(=O)NS(C)(=O)=O)cc2C2CC2)C1", "note": "[Example 438, (R)-5-cyclopropyl-2-fluoro-4-((1-(2-methoxy-4-(trifluoromethoxy)benzyl)piperidin-3-yl)oxy)-N-(methylsulfonyl)benzamide, trifluoroacetic acid salt]", "pIC50": 8.02},
      {"smiles": "CS(=O)(=O)NC(=O)c1cc(C2CC2)c(OCC2CCN(Cc3ccc(Cl)cc3)CC2)cc1F", "note": "[Example 104, 4-((1-(4-Chlorobenzyl)piperidin-4-yl)methoxy)-5-cyclopropyl-2-fluoro-N-(methylsulfonyl)benzamide]", "pIC50": 7.35},
      {"smiles": "CC1(COc2cc(F)c(C(=O)NS(C)(=O)=O)cc2C2CC2)CN(C(c2ccccc2)c2ccccc2)C1", "note": "[Example 68, 4-((1-benzhydryl-3-methylazetidin-3-yl)methoxy)-5-cyclopropyl-2-fluoro-N-(methylsulfonyl)benzamide]", "pIC50": 8.19},
      {"smiles": "CS(=O)(=O)NC(=O)c1cc(C2CC2)c(O[C@@H]2CCCN([C@H](c3ccc(F)cc3Cl)C(F)(F)F)C2)cc1F", "note": "(single isomer, unassigned) [Example 297]", "pIC50": 7.97},
      {"smiles": "CC(c1ccc(OC(F)(F)F)cc1)N1CCC(COc2cc(F)c(C(=O)NS(C)(=O)=O)cc2C2CC2)CC1", "note": "(centres unmarked) [Example 156]", "pIC50": 7.68},
      {"smiles": "CS(=O)(=O)NC(=O)c1cc(C2CC2)c(OCC2CCN(Cc3ncccc3C(F)(F)F)CC2)cc1F", "note": "[Example 365, 5-cyclopropyl-2-fluoro-N-(methylsulfonyl)-4-((1-((3-(trifluoromethyl)pyridin-2-yl)methyl)piperidin-4-yl)methoxy)benzamide, trifluoroacetic acid salt]", "pIC50": 6.49},
      {"smiles": "CS(=O)(=O)NC(=O)c1cc(C2CC2)c(O[C@@H]2CCCN([C@@H](c3ccc(F)cc3Cl)C(F)(F)F)C2)cc1F", "note": "(single isomer, unassigned) [Example 298]", "pIC50": 8.34},
      {"smiles": "O=C(NS(=O)(=O)C1CC1)c1cc(C2CC2)c(OCC2CCN(S(=O)(=O)c3ccc(OC(F)(F)F)cc3)CC2)cc1F", "note": "[Example 379, 5-cyclopropyl-N-(cyclopropylsulfonyl)-2-fluoro-4-((1-((4-(trifluoromethoxy)phenyl)sulfonyl)piperidin-4-yl)methoxy)benzamide]", "pIC50": 7.76},
      {"smiles": "C[C@H](c1cc(Cl)cc(Cl)c1)N1CCC(COc2cc(F)c(C(=O)NS(=O)(=O)N3CCC3)cc2C2CC2)CC1", "note": "(single isomer, unassigned) [Example 271]", "pIC50": 8.43},
      {"smiles": "CS(=O)(=O)NC(=O)c1cc(C2CC2)c(OC2CC3(C2)CN(Cc2ccc(F)cc2Cl)C3)cc1F", "note": "[Example 320, 4-((2-(2-chloro-4-fluorobenzyl)-2-azaspiro[3.3]heptan-6-yl)oxy)-5-cyclopropyl-2-fluoro-N-(methylsulfonyl)benzamide, trifluoroacetic acid salt]", "pIC50": 6.67},
      {"smiles": "O=C(NS(=O)(=O)C1CC1)c1cc(C2CC2)c(CN2[C@@H]3CC[C@H]2C[C@@H](Oc2cc(C(F)(F)F)c(Cl)cn2)C3)cc1F", "note": "[Example 551, 4-(((1R,3r,5S)-3-((5-chloro-4-(trifluoromethyl)pyridin-2-yl)oxy)-8-azabicyclo[3.2.1]octan-8-yl)methyl)-5-cyclopropyl-N-(cyclopropylsulfonyl)-2-fluorobenzamide, trifluoroacetic acid salt]", "pIC50": 8.12}
    ]}
  ]
}
